The values below come from paper PMC10217883, “Structure of Leishmania donovani 6-Phosphogluconate Dehydrogenase and Inhibition by Phosphine Gold(I) Complexes: A Potential Approach to Leishmaniasis Treatment” (International Journal of Molecular Sciences, 2023).

Test [1] has as its target T1, Ld6PGD (Leishmania donovani, UniProt Q18L02). Kind of test: Dose-response of gold(I)-based compounds against recombinant Ld6PGD (NADPH fluorescence). The format is biochemical. The method, then: (§1) Dose–response curves of gold(I)-based compounds against Ld6PGD were determined in 96-well plates using a Tecan Infinite M200 plate reader (Tecan, Maennedorf, Switzerland). An amount of 10 mM of each compound was dissolved in 100% DMSO and afterwards diluted in assay buffer to the required concentrations (highest final compound concentration of 100 μM). The DMSO tolerance of the enzymes was determined in advance by incubating the enzymes with up to 6% DMSO and determining their activity. Up to this concentration, no impairment of the enzymes’ catalytic activity was observed. In addition, a DMSO control was included in each measurement.
Different compound concentrations were added to one volume of enzyme mix (final concentrations: 50 mM Tris (pH 7.5), 0.005% Tween 20, 1 mg∙mL^−1 BSA, 0.7 nM Ld6PGD/0.7 nM Pf6PGD/0.9 nM Hs6PGD) and incubated for ten minutes. To start the reaction, one volume substrate mix (final concentrations: 50 mM Tris (pH 7.5), 0.005% Tween 20, 1 mg∙mL^−1 BSA, 3.3 mM MgCl2, 25/20/25 µM 6PG, 20 µM NADP^+ for Ld6PGD, Pf6PGD and Hs6PGD) was added to the wells. To increase the sensitivity of the assay, the increase of NADPH was monitored by measuring the fluorescence of NADPH at excitation 340 nm/emission 460 nm (ex340/em460). The substrate mix without 6PG served as a positive control (100% inhibition) and without the compound, but with DMSO as a negative control (100% activity). The assay contained both substrates either in saturation or at concentrations close to KM to facilitate the identification of competitive inhibitors. The reaction rate was calculated by dividing the relative fluorescence units (RFU) by time, and only a linear increase in absorbance/fluorescence was considered. IC50 values were calculated using GraphPad Prism 9.0 software and Microsoft Excel.

The target of test [2] is T1, Ld6PGD. Kind of test: Mode-of-inhibition study, substrate titration at constant auranofin concentrations (Michaelis-Menten). The format is biochemical. Particulars: for Vmax, NADP+ titrated: 6PG in saturation; for Vmax, 6PG titrated: NADP+ in saturation. The method, then:
For the mechanistic characterization of auranofin, either NADP^+ (0–200 µM) or 6PG (0–250 µM) was titrated at different constant compound concentrations around the IC50 (0–30 µM), while keeping the second substrate in saturation (6PG: 300 µM, NADP^+: 200 µM). To determine the compound mode of inhibition, the relationship between initial velocity (v0) and substrate concentrations ([S]) at various constant compound concentrations was analyzed by plotting the data as Michaelis–Menten curves using GraphPad Prism; KM values and Vmax were calculated with GraphPad Prism as well.

Test [3] addresses T1, Ld6PGD. Briefly: Reversibility of Ld6PGD inhibition (incubation at high concentration, then dilution). Format: biochemical. How it is done:
In detail, 14 nM Ld6PGD was incubated with 30 µM auranofin for 10 min at room temperature. […] Afterwards, NADP^+ and 6PG were added to start the reaction, either at substrate saturation (300 µM 6PG, 200 µM NADP^+) or at concentrations close to KM (25 µM 6PG, 20 µM NADP^+). For comparison, controls containing either no inhibitor (100% activity) or inhibitor in the concentration remaining after dilution were prepared. NADPH production was monitored at ex340 nm using the Tecan Infinite M200 plate reader in 96-well plates. Specific activities were calculated from reaction rates. […] Inhibition was considered reversible if the activity of the sample was equal to the controls.

In test [4] the target is TR from Leishmania infantum (LiTR). Set-up: method as in PMID 21833767. Particulars: read-out: Ki against recombinant TR from Leishmania infantum (LiTR); cited from earlier work.
A further test deals with Leishmania parasites. Set-up: method as in PMID 24328400, PMID 32463611, PMID 33139647. The note with it: trypanosomatid parasites; cited from earlier work.
The next test concerns the target Pf6PGD (Plasmodium falciparum, UniProt Q8IKT2). Briefly: Dose-response against recombinant Pf6PGD (NADPH fluorescence). Format: biochemical. How it is done:
as §1
(§2) Different compound concentrations were added to one volume of enzyme mix (final concentrations: 50 mM Tris (pH 7.5), 0.005% Tween 20, 1 mg∙mL^−1 BSA, 0.7 nM Ld6PGD/0.7 nM Pf6PGD/0.9 nM Hs6PGD) and incubated for ten minutes. […] To increase the sensitivity of the assay, the increase of NADPH was monitored by measuring the fluorescence of NADPH at excitation 340 nm/emission 460 nm (ex340/em460). […] The reaction rate was calculated by dividing the relative fluorescence units (RFU) by time, and only a linear increase in absorbance/fluorescence was considered. IC50 values were calculated using GraphPad Prism 9.0 software and Microsoft Excel.

A further test addresses T2, Hs6PGD (Homo sapiens, UniProt P52209).
T2 sequence (P52209 1-483): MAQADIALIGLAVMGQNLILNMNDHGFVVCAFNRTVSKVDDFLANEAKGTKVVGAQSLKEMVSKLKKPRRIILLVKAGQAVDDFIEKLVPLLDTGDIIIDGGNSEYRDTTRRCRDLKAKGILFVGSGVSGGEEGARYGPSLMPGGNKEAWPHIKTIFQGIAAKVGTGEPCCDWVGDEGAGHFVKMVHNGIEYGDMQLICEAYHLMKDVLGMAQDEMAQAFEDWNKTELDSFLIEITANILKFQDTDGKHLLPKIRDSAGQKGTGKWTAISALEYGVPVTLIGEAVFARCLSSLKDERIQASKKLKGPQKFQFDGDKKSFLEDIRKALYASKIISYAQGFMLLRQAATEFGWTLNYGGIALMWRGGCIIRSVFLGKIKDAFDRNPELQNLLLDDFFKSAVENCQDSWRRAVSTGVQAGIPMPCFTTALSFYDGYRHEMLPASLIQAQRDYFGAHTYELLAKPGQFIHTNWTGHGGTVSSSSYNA
Kind of test: Dose-response against recombinant Hs6PGD (NADPH fluorescence). The format is biochemical. The note with it: 25 µM 6PG, 20 µM NADP+, highest concentration 100 µM; read-out: IC50 for recombinant protein Hs6PGD. How it is done:
as §1, §2

Test [5] addresses Leishmania donovani 6-phosphogluconate dehydrogenase wild type (Leishmania donovani). Kind of test: SEC; HiLoad 16/60 Superdex 200 in buffer A (500 mM NaCl, 50 mM Tris, pH 7.8); native, with 5 mM DTT, with 2 mM H2O2, with 0.2 mM 6PG, 0.2 mM NADP+ or 0.2 mM NADPH; varying protein concentrations; the dimer peak was the same under all conditions. For orientation: In gel filtration, larger molecules generally elute earlier.

Read-outs that look alike come from different tables or passages of the source.

On to `CC(=O)OC[C@H]1O[C@@H]([S-])[C@H](OC(C)=O)[C@@H](OC(C)=O)[C@@H]1OC(C)=O.CCP(CC)CC.[Au+]` [Auranofin], for which the “Inhibition of Ld6PGD at 50 µM” value on Ld6PGD [1] (50 µM auranofin) is “completely inhibited”. The “IC50 against Ld6PGD with NADP+ at saturation” value on Ld6PGD [1] (enzyme incubated with auranofin and NADP+ at saturation, compared with IC50 at KM) is recorded as “unaffected”. Further, the “Mode of inhibition against 6PG” value on Ld6PGD [2] (6PG titrated, NADP+ 200 µM) was “mixed type of inhibition”. Moreover, the “Mode of inhibition against NADP+” value on Ld6PGD [2] (NADP+ titrated, 6PG 300 µM) is recorded as “non-competitive inhibition”. Also, the “Vmax, NADP+ titrated” value is on record as 35.9 U/mg on Ld6PGD [2] (auranofin 1.875 µM); 34.45 U/mg on Ld6PGD [2] (auranofin 3.75 µM); 34.92 U/mg at Ld6PGD [2] (auranofin 7.5 µM); 31.07 U/mg at Ld6PGD [2] (auranofin 15 µM); 23.34 U/mg at Ld6PGD [2] (auranofin 30 µM). The “Vmax, 6PG titrated” value at Ld6PGD [2] (auranofin 1.875 µM) came out at 36.43 U/mg; on Ld6PGD [2] (auranofin 3.75 µM) it was 35.23 U/mg; on Ld6PGD [2] (auranofin 7.5 µM) it was 29.59 U/mg; at Ld6PGD [2] (auranofin 15 µM), 21.59 U/mg; at Ld6PGD [2] (auranofin 30 µM) it was 7.71 U/mg. Further, at Ld6PGD [3] (30 µM auranofin (pre-dilution), substrates at KM), the “Ld6PGD activity of undiluted sample” value is on record as “completely inhibited”. Further, the “Reversibility of Ld6PGD inhibition” value at Ld6PGD [3] (30 µM pre-dilution, diluted to 3 µM, 10 min each) is recorded as “irreversible”. The Ki – broadly, a measure of affinity in units of concentration, obtained from inhibition or displacement – in test [4] is 0.155 ± 0.035 µM. Also, in the test on Leishmania parasites, the “Concentrations at which increase in ROS and apoptotic-like cell death were observed” value is 10 to 50 µM.

Turning to `CC[P](CC)(CC)=[Au][S][C@@H]1O[C@H](COC(C)=O)[C@@H](OC(C)=O)[C@H](OC(C)=O)[C@H]1OC(C)=O` [Auranofin], the Ki on Ld6PGD [1] was 3.8 ± 0.4 µM. The IC50 – broadly, the midpoint of a concentration-inhibition curve – is 40.5 ± 1.9 µM on Ld6PGD [1] (IC50 against Ld6PGD with 6PG at saturation, enzyme incubated with auranofin and 6PG at saturation); 8.6 ± 1 µM at Ld6PGD [1] (IC50 for recombinant protein Ld6PGD, substrates close to KM (25 µM 6PG, 20 µM NADP+), 10 min incubation with enzyme); 20.1 ± 1.5 µM at Pf6PGD; above 100 µM on Hs6PGD.

Regarding `[Cl][Au].c1ccc(P(c2ccccc2)c2ccccc2)cc1` [Ph3PAuCl, chloro(triphenylphosphine)gold(I)], at Ld6PGD [1] (substrates close to KM (25 µM 6PG, 20 µM NADP+), 10 min incubation with enzyme, read-out: IC50 for recombinant protein Ld6PGD), the IC50 was 2.1 ± 0.3 µM.

Consider “Leishmania donovani 6-phosphogluconate dehydrogenase wild type (enzyme)”, for which the stoichiometry N (usually the number of molecules, sites or subunits per partner or assembly) in test [5] was 2.
